Common to all, as to type: in vivo
In one series the test system is rice. Kind of series: post-emergence stage experiment, crop (Table 1). As to conditions: post-emergence spray at 4-5 leaf stage, 250 g/ha active ingredient with 450 kg/ha water, rated after 3 weeks in greenhouse. Summed up: (§1)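 Greenhouse pot test; foliar spray at 4-5 leaf stage; acetone + Tween 80 + water formulation; 3 wk post-treatment fresh-weight control rate.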

In the next series the test system is wheat. Kind of series: post-emergence stage experiment, crop (Table 1). The conditions noted are these: post-emergence spray at 4-5 leaf stage, 250 g/ha active ingredient with 450 kg/ha water, rated after 3 weeks in greenhouse. In outline: as §1
For a further series, the system named is rice (japonica rice). Kind of series: transplanted rice safety evaluation. As to conditions: 125 g/ha ai; treated 5 days after transplantation; 21 days after treatment. On the procedure:
The activity level standard of harmful plant destruction (i.e. growth control rate) is as follows: In addition, the rice field soil that loaded into the 1/1,000,000 ha pot was leveled to keep water storage at 3-4 cm depth. The 3 leaf stage rice (japonica rice) was transplanted at 3 cm of transplanting depth the next day. The compound of the present invention was treated by the same way after 5 days of transplantation. The fertility condition of echinochloa, scirpus juncoides, bidens tripartite and sagittaria trifolia 14 days after the treatment of the compound of the invention and the fertility condition of rice 21 days after the treatment of the compound of the invention respectively with the naked eye.

For series [1], the system named is echinochloa. Briefly: weed control effect evaluation in rice field. The arrangement: key: Level 10: completely dead; Level 9: above 95% growth control rate; Level 8: above 90% growth control rate; Level 7: above 80% growth control rate; Level 6: above 70% growth control rate; Level 5: above 60% growth control rate; Level 4: above 50% growth control rate; Level 3: above 20% growth control rate; Level 2: 5%-20% growth control rate; Level 1: below 5% growth control rate. As to conditions: 125 g/ha ai; rice field pot; 14 days after treatment; resistant to pyrazosulfuron-ethyl. The source says:
(§2) The activity level standard of harmful plant destruction (i.e. growth control rate) is as follows: Rice field soil was loaded into a 1/1,000,000 ha pot. The seeds of echinochloa, scirpus juncoides, bidens tripartite and sagittaria trifolia were sowed and gently covered with soil, then left to stand still in greenhouse in the state of 0.5-1 cm of water storage. The tuber of sagittaria trifolia was planted in the next day or 2 days later. It was kept at 3-4 cm of water storage thereafter. The weeds were treated by dripping the WP or SC water diluents prepared according to the common preparation method of the compounds of the present invention with pipette homogeneously to achieve specified effective amount when echinochloa, scirpus juncoides and bidens tripartite reached 0.5 leaf stage and sagittaria trifolia reached the time point of primary leaf stage. The fertility condition of echinochloa, scirpus juncoides, bidens tripartite and sagittaria trifolia 14 days after the treatment of the compound of the invention and the fertility condition of rice 21 days after the treatment of the compound of the invention respectively with the naked eye.

In another series the test system is sagittaria trifolia. Kind of series: weed control effect evaluation in rice field. The arrangement: key: Level 10: completely dead; Level 9: above 95% growth control rate; Level 8: above 90% growth control rate; Level 7: above 80% growth control rate; Level 6: above 70% growth control rate; Level 5: above 60% growth control rate; Level 4: above 50% growth control rate; Level 3: above 20% growth control rate; Level 2: 5%-20% growth control rate; Level 1: below 5% growth control rate. The conditions noted are these: 125 g/ha ai; rice field pot; 14 days after treatment; resistant to pyrazosulfuron-ethyl.
Excerpt: as §2

For a further series, the system named is bidens tripartite. Briefly: weed control effect evaluation in rice field. Details: key: Level 10: completely dead; Level 9: above 95% growth control rate; Level 8: above 90% growth control rate; Level 7: above 80% growth control rate; Level 6: above 70% growth control rate; Level 5: above 60% growth control rate; Level 4: above 50% growth control rate; Level 3: above 20% growth control rate; Level 2: 5%-20% growth control rate; Level 1: below 5% growth control rate. As to conditions: 125 g/ha ai; rice field pot; 14 days after treatment; resistant to pyrazosulfuron-ethyl.
Excerpt: as §2

Another series relates to scirpus juncoides. Kind of series: weed control effect evaluation in rice field. Details: key: Level 10: completely dead; Level 9: above 95% growth control rate; Level 8: above 90% growth control rate; Level 7: above 80% growth control rate; Level 6: above 70% growth control rate; Level 5: above 60% growth control rate; Level 4: above 50% growth control rate; Level 3: above 20% growth control rate; Level 2: 5%-20% growth control rate; Level 1: below 5% growth control rate. As to conditions: 125 g/ha ai; rice field pot; 14 days after treatment; resistant to pyrazosulfuron-ethyl.
Excerpt: as §2

Another series deals with crab grass. Briefly: weed control effect in post-emergence stage (Table 1). The conditions noted are these: post-emergence spray at 4-5 leaf stage, 250 g/ha active ingredient with 450 kg/ha water, rated after 3 weeks in greenhouse. Details: key: Level 10: completely dead; Level 9: above 95% growth control rate; Level 8: above 90% growth control rate; Level 7: above 80% growth control rate; Level 6: above 70% growth control rate; Level 5: above 60% growth control rate; Level 4: above 50% growth control rate; Level 3: above 20% growth control rate; Level 2: 5%-20% growth control rate; Level 1: below 5% growth control rate. Summed up: as §1

Series [2] relates to echinochloa. The series is described as above. Details: key: Level 10: completely dead; Level 9: above 95% growth control rate; Level 8: above 90% growth control rate; Level 7: above 80% growth control rate; Level 6: above 70% growth control rate; Level 5: above 60% growth control rate; Level 4: above 50% growth control rate; Level 3: above 20% growth control rate; Level 2: 5%-20% growth control rate; Level 1: below 5% growth control rate. The conditions noted are these: post-emergence spray at 4-5 leaf stage, 250 g/ha active ingredient with 450 kg/ha water, rated after 3 weeks in greenhouse. Summed up: as §1

Another series has as its system foxtail. The series is described as above. Details: key: Level 10: completely dead; Level 9: above 95% growth control rate; Level 8: above 90% growth control rate; Level 7: above 80% growth control rate; Level 6: above 70% growth control rate; Level 5: above 60% growth control rate; Level 4: above 50% growth control rate; Level 3: above 20% growth control rate; Level 2: 5%-20% growth control rate; Level 1: below 5% growth control rate. The conditions noted are these: post-emergence spray at 4-5 leaf stage, 250 g/ha active ingredient with 450 kg/ha water, rated after 3 weeks in greenhouse. In outline: as §1

In another series the test system is Indian mallow. The description is as above. Details: key: Level 10: completely dead; Level 9: above 95% growth control rate; Level 8: above 90% growth control rate; Level 7: above 80% growth control rate; Level 6: above 70% growth control rate; Level 5: above 60% growth control rate; Level 4: above 50% growth control rate; Level 3: above 20% growth control rate; Level 2: 5%-20% growth control rate; Level 1: below 5% growth control rate. The conditions noted are these: post-emergence spray at 4-5 leaf stage, 250 g/ha active ingredient with 450 kg/ha water, rated after 3 weeks in greenhouse. In outline: as §1

In the next series the test system is bidens bipinnata. The series is described as above. The arrangement: key: Level 10: completely dead; Level 9: above 95% growth control rate; Level 8: above 90% growth control rate; Level 7: above 80% growth control rate; Level 6: above 70% growth control rate; Level 5: above 60% growth control rate; Level 4: above 50% growth control rate; Level 3: above 20% growth control rate; Level 2: 5%-20% growth control rate; Level 1: below 5% growth control rate. The conditions noted are these: post-emergence spray at 4-5 leaf stage, 250 g/ha active ingredient with 450 kg/ha water, rated after 3 weeks in greenhouse. In outline:
as §1

For the next series, the system named is rorippa indica. The description is as above. As to conditions: post-emergence spray at 4-5 leaf stage, 250 g/ha active ingredient with 450 kg/ha water, rated after 3 weeks in greenhouse. The arrangement: key: Level 10: completely dead; Level 9: above 95% growth control rate; Level 8: above 90% growth control rate; Level 7: above 80% growth control rate; Level 6: above 70% growth control rate; Level 5: above 60% growth control rate; Level 4: above 50% growth control rate; Level 3: above 20% growth control rate; Level 2: 5%-20% growth control rate; Level 1: below 5% growth control rate. Summed up: as §1

SMILES strings stand for the structures.

Consider `Cc1nn(C)c(O)c1C(=O)c1ccc(C(F)(F)F)c(-n2cccn2)c1Cl` [Compound 068], for which the “effect on crop, Rice (level)” value in the series on rice is 5 (Level 5: above 60% growth control rate). In addition, in the series with wheat, the “effect on crop, Wheat (level)” value was 3 (Level 3: above 20% growth control rate). Further, the “Rice (activity level, transplanted rice safety)” value in the series with rice (japonica rice) is on record as 1 (Level 1: below 5% growth control rate). Also, the “Echinochloa weed control effect (activity level)” value (“Echinochloa weed control effect” below) in the series on echinochloa [1] is 10. Further, in the series on sagittaria trifolia, the “Sagittaria trifolia weed control effect (activity level)” value (shortened to “Sagittaria trifolia weed control effect”) is listed as 10. Moreover, the “Bidens tripartite weed control effect (activity level)” value (“Bidens tripartite weed control effect” for short) in the series with bidens tripartite worked out at 10. The “Scirpus juncoides weed control effect (activity level)” value (from here on “Scirpus juncoides weed control effect”) in the series with scirpus juncoides was 9 (Level 9: above 95% growth control rate). Further, in the series on crab grass, the “weed control effect, Crab grass (level)” value is reported as 5 (Level 5: above 60% growth control rate). In addition, in the series on echinochloa [2], the “weed control effect, Echinochloa (level)” value amounted to 10. Moreover, the “weed control effect, Green foxtail (level)” value with foxtail is recorded as 10. The “weed control effect, Indian mallow (level)” value in the series on Indian mallow is recorded as 10. Besides, the “weed control effect, Bidens bipinnata (level)” value with bidens bipinnata is on record as 10. For the same compound, in the series on rorippa indica, the “weed control effect, Rorippa indica (level)” value was 9 (Level 9: above 95% growth control rate).
Take `Cc1nn(C)c(O)c1C(=O)c1ccc(C(F)(F)F)c(N2CCCCCC2=O)c1Cl` [Compound 054]: the “effect on crop, Rice (level)” value in the series on rice is reported as 4 (Level 4: above 50% growth control rate). Also, the “effect on crop, Wheat (level)” value in the series with wheat was determined as 0. The “Rice (activity level, transplanted rice safety)” value in the series with rice (japonica rice) is 2 (Level 2: 5%-20% growth control rate). The “Echinochloa weed control effect” value with echinochloa [1] was 8 (Level 8: above 90% growth control rate). The “Sagittaria trifolia weed control effect” value in the series with sagittaria trifolia was 9 (Level 9: above 95% growth control rate). Also, in the series with bidens tripartite, the “Bidens tripartite weed control effect” value is on record as 9 (Level 9: above 95% growth control rate). Besides, the “Scirpus juncoides weed control effect” value with scirpus juncoides is reported as 9 (Level 9: above 95% growth control rate). Moreover, the “weed control effect, Crab grass (level)” value in the series with crab grass was 1 (Level 1: below 5% growth control rate). Also, the “weed control effect, Echinochloa (level)” value with echinochloa [2] was 6 (Level 6: above 70% growth control rate). Besides, the “weed control effect, Green foxtail (level)” value in the series with foxtail is 5 (Level 5: above 60% growth control rate). Besides, in the series on Indian mallow, the “weed control effect, Indian mallow (level)” value is reported as 9 (Level 9: above 95% growth control rate). Moreover, in the series with bidens bipinnata, the “weed control effect, Bidens bipinnata (level)” value was 9 (Level 9: above 95% growth control rate). The “weed control effect, Rorippa indica (level)” value with rorippa indica is reported as 9 (Level 9: above 95% growth control rate).
Consider `Cc1nn(C)c(O)c1C(=O)c1ccc(C(F)(F)F)c(N)c1Cl` [Compound 001], for which, in the series on rice, the “effect on crop, Rice (level)” value is given as 4 (Level 4: above 50% growth control rate). In addition, the “effect on crop, Wheat (level)” value in the series with wheat is 0. In addition, the “Rice (activity level, transplanted rice safety)” value with rice (japonica rice) was found to be 0. In addition, the “Echinochloa weed control effect” value with echinochloa [1] is given as 10. Further, the “Sagittaria trifolia weed control effect” value in the series on sagittaria trifolia is listed as 9 (Level 9: above 95% growth control rate). The “Bidens tripartite weed control effect” value in the series with bidens tripartite is on record as 8 (Level 8: above 90% growth control rate). Further, the “Scirpus juncoides weed control effect” value in the series on scirpus juncoides is on record as 10. In the series with crab grass, the “weed control effect, Crab grass (level)” value is given as 1 (Level 1: below 5% growth control rate). Besides, the “weed control effect, Echinochloa (level)” value in the series with echinochloa [2] is 6 (Level 6: above 70% growth control rate). Also, the “weed control effect, Green foxtail (level)” value with foxtail was 6 (Level 6: above 70% growth control rate). Moreover, in the series with Indian mallow, the “weed control effect, Indian mallow (level)” value is 9 (Level 9: above 95% growth control rate). Also, the “weed control effect, Bidens bipinnata (level)” value in the series on bidens bipinnata is recorded as 8 (Level 8: above 90% growth control rate). Besides, the “weed control effect, Rorippa indica (level)” value with rorippa indica is on record as 9 (Level 9: above 95% growth control rate).
For the compound `Cc1ccn(-c2c(C(F)(F)F)ccc(C(=O)c3c(C)nn(C)c3O)c2Cl)n1` [Compound 077], the “effect on crop, Rice (level)” value with rice is on record as 6 (Level 6: above 70% growth control rate). Moreover, the “effect on crop, Wheat (level)” value with wheat amounted to 0. Moreover, in the series on rice (japonica rice), the “Rice (activity level, transplanted rice safety)” value is recorded as 1 (Level 1: below 5% growth control rate). For the same compound, in the series on echinochloa [1], the “Echinochloa weed control effect” value came to 10. Also, the “Sagittaria trifolia weed control effect” value in the series with sagittaria trifolia came to 10. Besides, the “Bidens tripartite weed control effect” value in the series with bidens tripartite was 9 (Level 9: above 95% growth control rate). Also, the “Scirpus juncoides weed control effect” value with scirpus juncoides came to 10. In the series on crab grass, the “weed control effect, Crab grass (level)” value is reported as 4 (Level 4: above 50% growth control rate). In addition, the “weed control effect, Echinochloa (level)” value with echinochloa [2] is given as 10. The “weed control effect, Green foxtail (level)” value in the series on foxtail was 7 (Level 7: above 80% growth control rate). For the same compound, in the series on Indian mallow, the “weed control effect, Indian mallow (level)” value worked out at 10. The “weed control effect, Bidens bipinnata (level)” value with bidens bipinnata was 9 (Level 9: above 95% growth control rate). In the series with rorippa indica, the “weed control effect, Rorippa indica (level)” value was 10.

These data come from US11076594B2, “Pyrazolone compound or salt thereof, preparation method therefor, herbicide composition and use thereof” (QINGDAO KINGAGROOT CHEMICAL COMPOUNDS CO., LTD., priority 2015, dated 2021).
